# Assay results as given in patent US5112818A, “2-(2-cyclopropylpyrrolidin-4-ylthio)carbapenhem derivatives” (Banyu Pharmaceutical Co., Ltd., priority 1989, dated 1992).
# Where two headings read alike, the source gives them in different places.
# Tests used:
# Meth-R. S. aureus = assay: relative antibacterial potency, disc diffusion test (Bauer et al.); assay type: cell-based; settings: ratio to thienamycin (=1.0); larger value = higher activity
# Procedure: The compounds of the present invention show strong antibacterial activities against various gram positive bacteria and gram negative bacteria. As representative examples, the antibacterial activities of the compounds of the present invention described in the Examples, were measured by a disc diffusion test by the method of Bauer et al. (Amer. J. Clin. Pathol., vol. 45, p. 493 (1966)). Thienamycin or imipenem was used as the internal standard.
# MIC of each test compound was calculated from the diameter of the inhibition ring formed by the disc containing the test compound by using the calculation formula reported by Humphrey and Lightbown (J. Gen. Microbiol., vol. 7, p. 129 (1952)). For each microorganism, a geometrical average of MIC was obtained, and the activity ratio to thienamycin was calculated.
# The antibacterial activities are represented by the ratio to thienamycin (=1.0), whereby the larger the numerical value, the higher the activities.
# [1] = in words; background art; cited from earlier work
# [2] = tested on: gram positive bacteria and gram negative bacteria; settings: in words, cited from earlier work
# β-lactamase = settings: in words; cited from earlier work
# kidney = settings: in words; due to the decomposition products; cited from earlier work
# [3] = tested on: highly methicillin resistant Staphylococcus aureus; settings: in words; clinical field; cited from earlier work
# [4] = tested on: imipenem resistant Pseudomonas aeruginosa; settings: in words; clinical field; cited from earlier work
# renal dehydropeptidase I = settings: cited from earlier work
# DHP-I [5] = assay: DHP-I susceptibility (method by Kropp et al.); settings: ratio to imipenem (=1.0); smaller value = higher stability
# Excerpt: (§2) The DHP-I susceptibility was quantitatively analyzed by the method by Kropp et al., Antimicrob.,- Agents Chemother., vol. 22, p. 62-70 (1982), whereby the smaller the numerical value representing the ratio to imipenem (=1.0), the higher the stability.
# [6] = in words; cited from earlier work
# S. aureus 209P NIHJ JC1 = assay: in vitro antibacterial activity, agar plate dilution method (MIC); assay type: cell-based; settings: Staphylococcus aureus, 10^6 CFU/ml, 37° C., 16 hours
# Procedure: (§1) One platinum loopful of each test microorganism incubated overnight in Mueller Hinton broth, was inoculated to Mueller Hinton agara (inoculum size: 10^6 CFU/ml). Such culture media contained antibacterial agents in various concentrations. After incubation at 37° C. for 16 hours, the minimum inhibitory concentrations (MIC: μg/ml) were measured.
# S. aureus JS1 = assay: as above; assay type: cell-based; settings: Staphylococcus aureus; 10^6 CFU/ml; 37° C., 16 hours; S. aureus JS1, lactamase producing microorganism
# Procedure: as §1
# S. aureus MB4970 = assay: as above; assay type: cell-based; settings: Staphylococcus aureus, 10^6 CFU/ml, 37° C., 16 hours
# Procedure: as §1
# DHP-I [7] = tested on: DHP-I
# Excerpt: as §2
# [8] = tested on: methicillin resistant Staphylococcus aureus; settings: in words; background art; cited from earlier work
smiles,measurement,setting,value
C[C@@H](O)[C@H]1C(=O)N2C(C(=O)O)=C(SCCN=CN)C[C@H]12 [imipenem],"Relative antibacterial potency, Meth-R. S. aureus",Meth-R. S. aureus,2.57
same,chemical stability,[1],remarkably improved over thienamycin
same,antibacterial activities relative to thienamycin,[2]; various types of bacteria,equal or higher level than thienamycin
same,β-lactamase resistance,β-lactamase,has β-lactamase resistance
same,toxicity against the kidney,kidney,presents toxicity against the kidney due to the decomposition products
same,treating effects against imipenem-resistant highly methicillin resistant Staphylococcus aureus,[3],does not show adequate treating effects
same,treating effects against imipenem resistant Pseudomonas aeruginosa,[4],does not show adequate treating effects
same,decomposition by / stability against DHP-I,"renal dehydropeptidase I; in words, background art",likely to be decomposed by DHP-I in the human kidney
same,DHP-I susceptibility,DHP-I [5],1.0
C[C@@H](O)[C@H]1C(=O)N2C(C(=O)O)=C(SCCN)C[C@H]12 [thienamycin],chemical stability,[1],chemically unstable
same,recovery rate in the urine,[6],low
same,antibacterial activities,[2]; gram positive and gram negative bacteria,strong antibacterial activities over a wide range against gram positive bacteria and gram negative bacteria
same,decomposition by / stability against DHP-I,"renal dehydropeptidase I; in words, background art",likely to be decomposed by a certain enzyme in vivo such as renal dehydropeptidase I
"C[C@@H](O)[C@H]1C(=O)N2C(C(=O)O)=C(S[C@@H]3CN[C@H](C4CC4C(N)=O)C3)[C@H](C)[C@H]12 (single isomer, unassigned) [Example 6]",MIC,S. aureus 209P NIHJ JC1,0.025 µg/mL
same,MIC,S. aureus JS1,0.78 µg/mL
same,MIC,S. aureus MB4970,0.05 µg/mL
same,"Relative antibacterial potency, Meth-R. S. aureus",Meth-R. S. aureus,5.41
C[C@@H](O)[C@H]1C(=O)N2C(C(=O)O)=C(S[C@@H]3CN[C@H](C(=O)N(C)C)C3)[C@H](C)[C@H]12 [meropenem],"Relative antibacterial potency, Meth-R. S. aureus",Meth-R. S. aureus,3.15
same,DHP-I susceptibility,DHP-I [7],0.12
same,antibacterial activities against highly methicillin resistant Staphylococcus aureus,[8],not adequate
same,decomposition by / stability against DHP-I,renal dehydropeptidase I,stability against DHP-I substantially improved
